Assay results: ChEMBL document CHEMBL1649242, “Molecular epidemiology of CTX-M-producing Escherichia coli isolates at a tertiary medical center in western Pennsylvania” (Antimicrob Agents Chemother, 2009)
Calls of active or inactive are those of the source. The rule behind the calls is not given here.

Experiments:
Format in all cases: functional, organism-based
[1] = test system: Escherichia coli; experiment: Antimicrobial activity against CTX-M-15 ESBL producing Escherichia coli clinical isolate by CLSI disk diffusion assay
[2] = test system: Escherichia coli; experiment: Antimicrobial activity against CTX-M ESBL producing Escherichia coli clinical isolate by CLSI disk diffusion assay
[3] = test system: Escherichia coli; experiment: Antimicrobial activity against SHV-7 ESBL producing Escherichia coli clinical isolate by CLSI disk diffusion assay
[4] = test system: Escherichia coli; experiment: Antimicrobial activity against SHV-5 ESBL producing Escherichia coli clinical isolate by CLSI disk diffusion assay
[5] = test system: Escherichia coli; experiment: Antimicrobial activity against TEM-10 ESBL producing Escherichia coli clinical isolate by CLSI disk diffusion assay

| SMILES | Activity [1] | Activity [2] | Activity [3] | Activity [4] | Activity [5] |
| --- | --- | --- | --- | --- | --- |
| CC(C)(O/N=C(\C(=O)N[C@@H]1C(=O)N2C(C(=O)[O-])=C(C[n+]3ccccc3)CS[C@H]12)c1csc(N)n1)C(=O)O | inactive | inactive | inactive | inactive | inactive |
| CO/N=C(\C(=O)N[C@@H]1C(=O)N2C(C(=O)O)=C(COC(C)=O)CS[C@H]12)c1csc(N)n1 | – | – | – | – | Active |
